Laboratory results as given in US10508092B2, “Synthesis of novel analogs of diptoindonesin G, compounds formed thereby, and pharmaceutical compositions containing them” (Wisconsin Alumni Research Foundation, priority 2016, dated 2019).
“Also recorded” adds a separate entry of the source.

How the values were obtained:
[1] = test system: murine leukemia P-388 cells; details: cited from earlier work
wildtype ERα = test: ERE-Luciferase activity of wildtype ERα in T47D cells; type: cell-based, human; details: co-treated with 10 nM E2, 10 μM, 24 hrs
Protocol: FIG. 6 is a histogram depicting Dip G- and Dip G-D1-inhibited E2-dependent ERE-Luciferase activities of wildtype ERα or ERα Y537S in T47D cells. Cells were co-treated with 10 nM E2 and Dip G or Dip G-D1 (10 μM) for 24 hrs. The experiments were performed in triplicate. Data are represented as mean±SD, n=3.

[2] = test system: estrogen receptor α (ERα); test: Western blot of ERα levels in MCF7 cells; type: cell-based, human
Protocol: FIGS. 1A, 1B, and 1C together depict the biological activity of the subject compounds on estrogen receptor α (ERα) levels in human breast cancer cells.
(§1) The biological activity of these four analogs were then compared with the parent compound Dip G following our previous protocol (Zhao et al., supra). See FIGS. 1A, 1B, 1C, 2A, 2B, and 2C. Cells were treated with each compound at 10 μM concentration in order to evaluate how well each modified the stability of ERα and ERβ.
(§2) MCF7 cells were treated with Dip G and analogs for 24 hours before harvesting. Hs578T-tet-on-ERβ cells (ATCC HTB-126; American Type Culture Collection, Manassas, Va.) were treated with doxycycline for 24 hours to induce ERβ expression. Then the cells were treated with compounds for 5 days before harvesting. 15 μg of total cell lysates were resolved on SDS-PAGE and Western blot analyses were performed as previously described using ERα antibody (HC-20, Santa Cruz Biotechnology, Inc., Dallas, Tex.) and anti-FLAG antibody (F7425, Sigma-Aldrich Co., LLC, St. Louis, Mo.) for ERβ.^3

[3] = test system: estrogen receptor β (ERβ); details: breast cancer, Zhao et al. 2015; cited from earlier work
[4] = test system: estrogen receptor β (ERβ); test: Western blot of FLAG-ERβ levels in Hs578T-ERβLuc Dox-inducible cells; type: cell-based, human; details: Hs578T-ERβLuc Dox-inducible line, 10 μM, 5 days, Western blot (anti-FLAG)
Protocol: FIGS. 2A, 2B, and 2C together depict the biological activity of the subject compounds on estrogen receptor β (ERβ) levels in human breast cancer cells.
as §1, §2

[5] = test system: mouse splenic lymphocytes (T cells); details: concanavalin A induced proliferation of mouse splenic lymphocytes; cited from earlier work
[6] = Toxicity observations in treated mice (AST ELISA, gross tissue, injection site); type: in vivo
Protocol: Dip G was synthesized as described and formulated for the in vivo treatment. Dip G was prepared by dissolving the stock powder in 100% DMSO to a final concentration of 50 mg/ml. This stock solution was then diluted 1:5 into a 40% polyethylene glycol (PEG300)/40% normal saline (0.9% NaCl) solution to a final concentration of 20% Dip G solution. […] To determine MTD, escalating doses of Dip G dissolved in the aforementioned formulation were injected retro-orbitally or by oral gavage daily, five days out of seven to determine the MTD. […] (Data not shown.) Dip G was intra-tumorally delivered to ERα-positive T47D xenografted mice three times a week and the tumors were monitored for three weeks. […] (AST ELISAs are available commercially from several suppliers, including Abcam, Cambridge, Mass.)
Mice were monitored twice weekly for weight changes and tumor growth (measured in diameter and volume) with calipers. Following tumors reaching an appropriate size (˜5 mm in diameter, taking approximately 3 months after grafting), intra-tumoral injections were begun with vehicle containing 20 mg/kg of Dip G or control vehicle in a total volume of 50 μL split between tumors on each mammary fat pad. Three mice (6 tumors) received control injections and eight (16 tumors) received Dip G. Injections were administered 3 times per week with at least one day of rest between injections, for a total of 10-12 injections. Cohorts were sacrificed by cage individually in numerical order, beginning with the 10th injection and sacrificing one cage per injection for pharmacokinetic time points from that injection onward. In mice with very small tumors, dosing was switched from intra-tumoral to subcutaneous at later time points.

In the case of O=C1c2c(O)cc(O)cc2-c2c(-c3ccc(O)cc3)oc3cc(O)cc1c23 [Dip G, diptoindonesin G], the anti-proliferation effect [1] is given as “anti-proliferation effect”, the “E2-dependent ERE-Luciferase activity of wildtype ERα” value (wildtype ERα) is given as “inhibited” and the “amount of endogenous ERα in MCF7 cells” value ([2]; 10 μM, compared to untreated cells, gel blot FIG. 4) is given as “degrades endogenous ERα; also recorded: greatly decreased”. For the same molecule, the ERα stability ([2]; MCF7 cells, 10 μM, 24 hours, Western blot) was “decreased ERα stability with the largest change”, the “endogenous ERα protein levels” value ([2]; MCF7 cells, FIG. 4) was “less than 20%” and the “stability of ERβ” value [3] was “increases the stability”. For the same molecule, the ERβ stability [4] was “strongly stabilized”, the immunosuppressant activity [5] was “immunosuppressant activity” and the liver toxicity ([6]; AST ELISA assay) was “undetectable”. The AST activity ([6]; aspartate aminotransferase ELISA, treated xenograft mice) was “around 70 milliunits/mL”, the toxicity in vivo ([6]; high concentrations) was “No obvious toxicity” and the “signs around the tumor and the site of injection” value ([6]; intra-tumoral injection, not observed with vehicle only) was “subcutaneous bleeding, bruising, and discoloration”. For the same molecule, the gross tissue damage ([6]; liver, lung, kidney, brain, and heart) was “no gross tissue damages were observed”.
